Reference: patent US8758816B2, “Compositions comprising azelastine and methods of use thereof” (priority 2004, dated 2014)

System: patients with seasonal allergic rhinitis (SAR)
Assay: MP 428 study: individual symptom severity scores (runny nose, itchy nose, sneezing, congestion; 0-3 scale)
Type: in vivo, human
Details: Intent-to-Treat Population
Protocol: A two-week, randomized, double-blind study, which evaluated the effects of the co-administration of ASTELIN® (azelastine hydrochloride (HCl)) and FLONASE® (fluticasone propionate) compared to either product alone in patients with seasonal allergic rhinitis (SAR) was conducted during the 2006 Texas mountain cedar season. After a 5-day placebo lead-in period, 151 patients with moderate-to-severe allergic rhinitis symptoms were randomized to either: (1) (49 total patients) ASTELIN® (azelastine hydrochloride (HCl)) plus placebo saline nasal spray 2 sprays per nostril, 15 minutes apart, twice daily (AM & PM); (2) (50 total patients) FLONASE® (fluticasone propionate) plus placebo saline nasal spray, 2 sprays per nostril, 15 minutes apart, once daily (AM) and two sessions of placebo saline nasal spray, 2 sprays per nostril, 15 minutes apart (PM); or (3) (52 total patients) the co-administration of ASTELIN® (azelastine hydrochloride (HCl)) 2 sprays per nostril plus FLONASE® (fluticasone propionate) 2 sprays per nostril (AM), 15 minutes apart, and ASTELIN® (azelastine hydrochloride (HCl)) 2 sprays per nostril plus placebo saline nasal spray, 15 minutes apart, (PM) for a 2-week double-blind treatment period.
The primary efficacy variable was the change from baseline in the Total Nasal Symptom Score (TNSS), which comprised sneezing, itchy nose, runny nose, and nasal congestion (individual symptoms scores were assigned a value between 0 and 3, where 0=no symptoms and 3=severe symptoms). This study was not statistically designed to assess the differences between ASTELIN® and FLONASE®.
The results of the clinical trial are summarized and presented in Appendix A hereinbelow and in FIGS. 1-6. […] FIGS. 2-5 show the mean improvement in severity score (0-3 scale) from baseline for the symptoms of runny nose, itchy nose, sneezing and congestion, respectively.

Q: What does the source list for `CCC(=O)O[C@]1(C(=O)SCF)[C@H](C)C[C@H]2[C@@H]3C[C@H](F)C4=CC(=O)C=C[C@]4(C)[C@@]3(F)[C@@H](O)C[C@@]21C` [Fluticasone, fluticasone propionate]?
A: Change from Baseline in AM and PM Combined Nasal Symptom Score: Congestion, LS Mean (Day 9): −1.19; Change from Baseline in AM and PM Combined Nasal Symptom Score: Congestion, Mean (Day 9): −1.22; Change from Baseline in AM and PM Combined Nasal Symptom Score: Congestion, Median (Day 9): −1.27; Change from Baseline in AM and PM Combined Nasal Symptom Score: Itchy Nose, LS Mean (Day 9): −1.40; Change from Baseline in AM and PM Combined Nasal Symptom Score: Itchy Nose, Mean (Day 9): −1.35; Change from Baseline in AM and PM Combined Nasal Symptom Score: Itchy Nose, Median (Day 9): −1.30; Change from Baseline in AM and PM Combined Nasal Symptom Score: Runny Nose, LS Mean (Day 9): −1.18; Change from Baseline in AM and PM Combined Nasal Symptom Score: Runny Nose, Mean (Day 9): −1.21; Change from Baseline in AM and PM Combined Nasal Symptom Score: Runny Nose, Median (Day 9): −1.00; Change from Baseline in AM and PM Combined Nasal Symptom Score: Sneezing, LS Mean (Day 9): −1.40; Change from Baseline in AM and PM Combined Nasal Symptom Score: Sneezing, Mean (Day 9): −1.29; Change from Baseline in AM and PM Combined Nasal Symptom Score: Sneezing, Median (Day 9): −1.40; Percent Change from Baseline in AM and PM Combined Nasal Symptom Score: Congestion, LS Mean (Day 9): −22.17%; Percent Change from Baseline in AM and PM Combined Nasal Symptom Score: Congestion, Mean (Day 9): −22.28%; Percent Change from Baseline in AM and PM Combined Nasal Symptom Score: Congestion, Median (Day 9): −24.05%; Percent Change from Baseline in AM and PM Combined Nasal Symptom Score: Itchy Nose, LS Mean (Day 9): −29.96%; Percent Change from Baseline in AM and PM Combined Nasal Symptom Score: Itchy Nose, Mean (Day 9): −28.73%; Percent Change from Baseline in AM and PM Combined Nasal Symptom Score: Itchy Nose, Median (Day 9): −31.23%; Percent Change from Baseline in AM and PM Combined Nasal Symptom Score: Runny Nose, LS Mean (Day 9): −18.79%; Percent Change from Baseline in AM and PM Combined Nasal Symptom Score: Runny Nose, Mean (Day 9): −19.22%; Percent Change from Baseline in AM and PM Combined Nasal Symptom Score: Runny Nose, Median (Day 9): −16.67%; Percent Change from Baseline in AM and PM Combined Nasal Symptom Score: Sneezing, LS Mean (Day 9): −29.73%; Percent Change from Baseline in AM and PM Combined Nasal Symptom Score: Sneezing, Mean (Day 9): −28.22%; Percent Change from Baseline in AM and PM Combined Nasal Symptom Score: Sneezing, Median (Day 9): −32.58%; Change from Baseline in AM and PM Combined Nasal Symptom Score: Congestion, LS Mean (Day 10): −1.34; Change from Baseline in AM and PM Combined Nasal Symptom Score: Congestion, Mean (Day 10): −1.39; Change from Baseline in AM and PM Combined Nasal Symptom Score: Congestion, Median (Day 10): −1.50; Change from Baseline in AM and PM Combined Nasal Symptom Score: Itchy Nose, LS Mean (Day 10): −1.21; Change from Baseline in AM and PM Combined Nasal Symptom Score: Itchy Nose, Mean (Day 10): −1.19; Change from Baseline in AM and PM Combined Nasal Symptom Score: Itchy Nose, Median (Day 10): −1.00; Change from Baseline in AM and PM Combined Nasal Symptom Score: Runny Nose, LS Mean (Day 10): −1.52; Change from Baseline in AM and PM Combined Nasal Symptom Score: Runny Nose, Mean (Day 10): −1.54; Change from Baseline in AM and PM Combined Nasal Symptom Score: Runny Nose, Median (Day 10): −1.45; Change from Baseline in AM and PM Combined Nasal Symptom Score: Sneezing, LS Mean (Day 10): −1.57; Change from Baseline in AM and PM Combined Nasal Symptom Score: Sneezing, Mean (Day 10): −1.50; Change from Baseline in AM and PM Combined Nasal Symptom Score: Sneezing, Median (Day 10): −1.58; Percent Change from Baseline in AM and PM Combined Nasal Symptom Score: Congestion, LS Mean (Day 10): −24.97%; Percent Change from Baseline in AM and PM Combined Nasal Symptom Score: Congestion, Mean (Day 10): −25.31%; Percent Change from Baseline in AM and PM Combined Nasal Symptom Score: Congestion, Median (Day 10): −27.27%; Percent Change from Baseline in AM and PM Combined Nasal Symptom Score: Itchy Nose, LS Mean (Day 10): −23.04%; Percent Change from Baseline in AM and PM Combined Nasal Symptom Score: Itchy Nose, Mean (Day 10): −22.79%; Percent Change from Baseline in AM and PM Combined Nasal Symptom Score: Itchy Nose, Median (Day 10): −18.99%; Percent Change from Baseline in AM and PM Combined Nasal Symptom Score: Runny Nose, LS Mean (Day 10): −26.05%; Percent Change from Baseline in AM and PM Combined Nasal Symptom Score: Runny Nose, Mean (Day 10): −26.39%; Percent Change from Baseline in AM and PM Combined Nasal Symptom Score: Runny Nose, Median (Day 10): −29.13%; Percent Change from Baseline in AM and PM Combined Nasal Symptom Score: Sneezing, LS Mean (Day 10): −31.65%; Percent Change from Baseline in AM and PM Combined Nasal Symptom Score: Sneezing, Mean (Day 10): −31.17%; Percent Change from Baseline in AM and PM Combined Nasal Symptom Score: Sneezing, Median (Day 10): −33.33%; Change from Baseline in AM and PM Combined Nasal Symptom Score: Congestion, LS Mean (Day 11): −1.22; Change from Baseline in AM and PM Combined Nasal Symptom Score: Congestion, Mean (Day 11): −1.28; Change from Baseline in AM and PM Combined Nasal Symptom Score: Congestion, Median (Day 11): −1.27; Change from Baseline in AM and PM Combined Nasal Symptom Score: Itchy Nose, LS Mean (Day 11): −1.33; Change from Baseline in AM and PM Combined Nasal Symptom Score: Itchy Nose, Mean (Day 11): −1.29; Change from Baseline in AM and PM Combined Nasal Symptom Score: Itchy Nose, Median (Day 11): −1.08; Change from Baseline in AM and PM Combined Nasal Symptom Score: Runny Nose, LS Mean (Day 11): −1.51; Change from Baseline in AM and PM Combined Nasal Symptom Score: Runny Nose, Mean (Day 11): −1.54; Change from Baseline in AM and PM Combined Nasal Symptom Score: Runny Nose, Median (Day 11): −1.42; Change from Baseline in AM and PM Combined Nasal Symptom Score: Sneezing, LS Mean (Day 11): −1.78; Change from Baseline in AM and PM Combined Nasal Symptom Score: Sneezing, Mean (Day 11): −1.66; Change from Baseline in AM and PM Combined Nasal Symptom Score: Sneezing, Median (Day 11): −1.83; Percent Change from Baseline in AM and PM Combined Nasal Symptom Score: Congestion, LS Mean (Day 11): −22.54%; Percent Change from Baseline in AM and PM Combined Nasal Symptom Score: Congestion, Mean (Day 11): −23.45%; Percent Change from Baseline in AM and PM Combined Nasal Symptom Score: Congestion, Median (Day 11): −24.05%; Percent Change from Baseline in AM and PM Combined Nasal Symptom Score: Itchy Nose, LS Mean (Day 11): −26.56%; Percent Change from Baseline in AM and PM Combined Nasal Symptom Score: Itchy Nose, Mean (Day 11): −25.70%; Percent Change from Baseline in AM and PM Combined Nasal Symptom Score: Itchy Nose, Median (Day 11): −27.36%; Percent Change from Baseline in AM and PM Combined Nasal Symptom Score: Runny Nose, LS Mean (Day 11): −31.56%; Percent Change from Baseline in AM and PM Combined Nasal Symptom Score: Runny Nose, Mean (Day 11): −31.74%; Percent Change from Baseline in AM and PM Combined Nasal Symptom Score: Runny Nose, Median (Day 11): −33.33%; Percent Change from Baseline in AM and PM Combined Nasal Symptom Score: Sneezing, LS Mean (Day 11): −35.11%; Percent Change from Baseline in AM and PM Combined Nasal Symptom Score: Sneezing, Mean (Day 11): −33.52%; Percent Change from Baseline in AM and PM Combined Nasal Symptom Score: Sneezing, Median (Day 11): −36.05%; Change from Baseline in AM and PM Combined Nasal Symptom Score: Congestion, LS Mean (Day 12): −1.41; Change from Baseline in AM and PM Combined Nasal Symptom Score: Congestion, Mean (Day 12): −1.49; Change from Baseline in AM and PM Combined Nasal Symptom Score: Congestion, Median (Day 12): −1.55; Change from Baseline in AM and PM Combined Nasal Symptom Score: Itchy Nose, LS Mean (Day 12): −1.50; Change from Baseline in AM and PM Combined Nasal Symptom Score: Itchy Nose, Mean (Day 12): −1.48; Change from Baseline in AM and PM Combined Nasal Symptom Score: Itchy Nose, Median (Day 12): −1.17; Change from Baseline in AM and PM Combined Nasal Symptom Score: Runny Nose, LS Mean (Day 12): −1.54; Change from Baseline in AM and PM Combined Nasal Symptom Score: Runny Nose, Mean (Day 12): −1.58; Change from Baseline in AM and PM Combined Nasal Symptom Score: Runny Nose, Median (Day 12): −1.35; Change from Baseline in AM and PM Combined Nasal Symptom Score: Sneezing, LS Mean (Day 12): −1.68; Change from Baseline in AM and PM Combined Nasal Symptom Score: Sneezing, Mean (Day 12): −1.54; Change from Baseline in AM and PM Combined Nasal Symptom Score: Sneezing, Median (Day 12): −1.80
